Like-named read-outs stand apart in the source and are kept apart here.
Key:
Assay type in all cases: biochemical
PI3K γ = PI3K γ (Homo sapiens (Human), UniProt P48736); assay: PI 3-Kinase (human) HTRF assay, p110γ
PI3K α = PI3K α (Homo sapiens (Human), UniProt P42336); assay: PI 3-Kinase (human) HTRF assay, p110α/p85α
mTORC = mTORC (Homo sapiens (Human), UniProt P42345); assay: mTOR inhibition assay (radiometric or LanthaScreen TR-FRET)
Description: The compounds described herein can be tested against recombinant mTOR (Invitrogen) in an assay containing 50 mM HEPES, pH 7.5, 1 mM EGTA, 10 mM MgCl2, 2.5 mM, 0.01% Tween, 10 μM ATP (2.5 μCi of μ-32P-ATP), and 3 μg/mL BSA. Rat recombinant PHAS-1/4EBP1 (Calbiochem; 2 mg/mL) is used as a substrate. Reactions are terminated by spotting onto nitrocellulose, which is washed with 1M NaCl/1% phosphoric acid (approximately 6 times, 5-10 minutes each). Sheets are dried and the transferred radioactivity quantitated by phosphorimaging.
For instance, one can use Invitrogen's LanthaScreen™ Kinase assay to test the inhibitors of mTOR disclosed herein. This assay is a time resolved FRET platform that measures the phosphorylation of GFP labeled 4EBP1 by mTOR kinase. The kinase reaction is performed in a white 384 well microtitre plate. The total reaction volume is 20 ul per well and the reaction buffer composition is 50 mM HEPES pH7.5, 0.01% Polysorbate 20, 1 mM EGTA, 10 mM MnCl2, and 2 mM DTT. In the first step, each well receives 2 ul of test compound in 20% dimethylsulphoxide resulting in a 2% DMSO final concentration. Next, 8 ul of mTOR diluted in reaction buffer is added per well for a 60 ng/ml final concentration. To start the reaction, 10 ul of an ATP/GFP-4EBP1 mixture (diluted in reaction buffer) is added per well for a final concentration of 10 μM ATP and 0.5 μM GFP-4EBP1. The plate is sealed and incubated for 1 hour at room temperature. […] The plate is sealed, incubated for 1 hour at room temperature, and then read on a plate reader set up for LanthaScreen™ TR-FRET. Data is analyzed and IC50s are generated using GraphPad Prism 5.

PI3K β = PI3K β (Homo sapiens (Human), UniProt P42338); assay: PI 3-Kinase (human) HTRF assay, p110β/p85α
Sequence of PI3K β (P42338 whole entry): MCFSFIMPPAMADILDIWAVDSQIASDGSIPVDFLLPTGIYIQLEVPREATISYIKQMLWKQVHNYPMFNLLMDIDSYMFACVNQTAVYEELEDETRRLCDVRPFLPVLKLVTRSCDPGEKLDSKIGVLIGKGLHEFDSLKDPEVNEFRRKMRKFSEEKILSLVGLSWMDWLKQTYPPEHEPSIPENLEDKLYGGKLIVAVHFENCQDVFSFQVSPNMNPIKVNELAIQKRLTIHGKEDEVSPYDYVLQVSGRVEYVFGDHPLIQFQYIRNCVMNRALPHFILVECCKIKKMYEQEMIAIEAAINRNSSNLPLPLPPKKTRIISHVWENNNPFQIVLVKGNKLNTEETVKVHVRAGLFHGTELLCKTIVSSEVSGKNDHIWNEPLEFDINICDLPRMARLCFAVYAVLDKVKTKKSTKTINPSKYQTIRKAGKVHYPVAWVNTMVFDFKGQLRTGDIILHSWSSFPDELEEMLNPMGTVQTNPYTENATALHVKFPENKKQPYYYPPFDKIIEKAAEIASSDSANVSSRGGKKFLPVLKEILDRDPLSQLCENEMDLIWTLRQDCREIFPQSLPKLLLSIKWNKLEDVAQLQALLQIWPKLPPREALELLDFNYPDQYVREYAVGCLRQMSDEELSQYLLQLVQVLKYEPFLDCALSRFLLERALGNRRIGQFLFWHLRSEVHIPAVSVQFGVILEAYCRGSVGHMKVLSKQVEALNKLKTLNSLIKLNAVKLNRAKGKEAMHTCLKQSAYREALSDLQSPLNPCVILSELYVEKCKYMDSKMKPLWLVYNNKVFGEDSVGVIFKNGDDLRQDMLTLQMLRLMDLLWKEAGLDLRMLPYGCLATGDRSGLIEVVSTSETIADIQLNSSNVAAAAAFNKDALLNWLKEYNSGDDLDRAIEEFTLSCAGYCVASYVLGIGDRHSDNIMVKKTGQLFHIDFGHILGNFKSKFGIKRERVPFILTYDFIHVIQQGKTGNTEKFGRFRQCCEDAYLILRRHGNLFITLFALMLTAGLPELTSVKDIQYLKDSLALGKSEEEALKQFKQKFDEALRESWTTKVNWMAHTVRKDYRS
Sequence of PI3K β (P27986 whole entry partner): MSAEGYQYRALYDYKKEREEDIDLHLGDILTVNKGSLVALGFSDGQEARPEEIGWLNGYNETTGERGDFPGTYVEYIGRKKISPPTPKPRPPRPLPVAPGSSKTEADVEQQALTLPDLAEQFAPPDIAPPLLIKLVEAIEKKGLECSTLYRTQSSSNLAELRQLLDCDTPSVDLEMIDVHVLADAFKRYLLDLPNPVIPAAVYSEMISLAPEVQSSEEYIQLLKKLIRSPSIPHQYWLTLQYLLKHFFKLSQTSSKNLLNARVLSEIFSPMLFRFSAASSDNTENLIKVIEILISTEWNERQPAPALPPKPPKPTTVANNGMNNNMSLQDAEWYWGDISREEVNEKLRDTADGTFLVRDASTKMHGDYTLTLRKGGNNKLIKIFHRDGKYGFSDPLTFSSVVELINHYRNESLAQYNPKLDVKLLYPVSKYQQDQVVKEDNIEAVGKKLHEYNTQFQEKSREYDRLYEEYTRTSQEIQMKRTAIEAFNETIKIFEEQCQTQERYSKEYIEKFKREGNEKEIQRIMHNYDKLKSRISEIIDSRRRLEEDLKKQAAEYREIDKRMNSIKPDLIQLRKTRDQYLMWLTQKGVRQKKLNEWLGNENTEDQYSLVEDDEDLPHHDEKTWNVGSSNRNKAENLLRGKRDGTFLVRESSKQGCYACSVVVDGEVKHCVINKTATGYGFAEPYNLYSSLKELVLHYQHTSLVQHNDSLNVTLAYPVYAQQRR

[1] = PI 3-Kinase (human) HTRF assay, p110δ/p85α; conditions: read-out: PI3K γ IC50

Sequence of mTORC (P42345 1360-2549): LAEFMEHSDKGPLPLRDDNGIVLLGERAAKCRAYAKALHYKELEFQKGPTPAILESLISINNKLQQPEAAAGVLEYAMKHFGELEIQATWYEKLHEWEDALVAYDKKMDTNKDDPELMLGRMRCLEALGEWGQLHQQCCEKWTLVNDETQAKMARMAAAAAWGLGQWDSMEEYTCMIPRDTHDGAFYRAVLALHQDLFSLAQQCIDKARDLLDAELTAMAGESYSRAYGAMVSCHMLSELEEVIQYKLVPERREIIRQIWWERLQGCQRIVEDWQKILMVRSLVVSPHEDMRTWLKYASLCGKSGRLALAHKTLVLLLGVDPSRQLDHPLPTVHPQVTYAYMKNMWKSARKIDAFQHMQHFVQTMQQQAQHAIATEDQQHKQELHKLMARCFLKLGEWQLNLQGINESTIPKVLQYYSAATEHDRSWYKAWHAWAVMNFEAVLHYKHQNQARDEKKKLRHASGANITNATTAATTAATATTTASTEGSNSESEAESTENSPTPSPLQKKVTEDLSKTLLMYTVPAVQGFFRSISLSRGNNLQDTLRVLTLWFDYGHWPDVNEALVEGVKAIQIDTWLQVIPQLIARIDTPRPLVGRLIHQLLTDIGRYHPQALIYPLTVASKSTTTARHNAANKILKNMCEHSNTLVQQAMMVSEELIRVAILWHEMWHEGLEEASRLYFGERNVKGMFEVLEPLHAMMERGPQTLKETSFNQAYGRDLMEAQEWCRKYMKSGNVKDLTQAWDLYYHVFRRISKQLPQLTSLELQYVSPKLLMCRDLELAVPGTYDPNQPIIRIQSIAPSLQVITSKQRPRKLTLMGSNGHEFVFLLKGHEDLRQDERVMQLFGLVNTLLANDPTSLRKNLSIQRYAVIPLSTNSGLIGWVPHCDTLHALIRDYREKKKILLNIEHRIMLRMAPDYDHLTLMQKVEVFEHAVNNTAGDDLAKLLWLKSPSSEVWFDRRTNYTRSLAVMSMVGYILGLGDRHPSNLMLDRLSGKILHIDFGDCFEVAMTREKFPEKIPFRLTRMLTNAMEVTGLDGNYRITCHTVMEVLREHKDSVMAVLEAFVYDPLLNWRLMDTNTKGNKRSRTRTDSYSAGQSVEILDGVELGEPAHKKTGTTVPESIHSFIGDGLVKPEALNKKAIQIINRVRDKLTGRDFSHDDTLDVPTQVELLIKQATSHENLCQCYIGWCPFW
Sequence of PI3K α (P42336 whole entry): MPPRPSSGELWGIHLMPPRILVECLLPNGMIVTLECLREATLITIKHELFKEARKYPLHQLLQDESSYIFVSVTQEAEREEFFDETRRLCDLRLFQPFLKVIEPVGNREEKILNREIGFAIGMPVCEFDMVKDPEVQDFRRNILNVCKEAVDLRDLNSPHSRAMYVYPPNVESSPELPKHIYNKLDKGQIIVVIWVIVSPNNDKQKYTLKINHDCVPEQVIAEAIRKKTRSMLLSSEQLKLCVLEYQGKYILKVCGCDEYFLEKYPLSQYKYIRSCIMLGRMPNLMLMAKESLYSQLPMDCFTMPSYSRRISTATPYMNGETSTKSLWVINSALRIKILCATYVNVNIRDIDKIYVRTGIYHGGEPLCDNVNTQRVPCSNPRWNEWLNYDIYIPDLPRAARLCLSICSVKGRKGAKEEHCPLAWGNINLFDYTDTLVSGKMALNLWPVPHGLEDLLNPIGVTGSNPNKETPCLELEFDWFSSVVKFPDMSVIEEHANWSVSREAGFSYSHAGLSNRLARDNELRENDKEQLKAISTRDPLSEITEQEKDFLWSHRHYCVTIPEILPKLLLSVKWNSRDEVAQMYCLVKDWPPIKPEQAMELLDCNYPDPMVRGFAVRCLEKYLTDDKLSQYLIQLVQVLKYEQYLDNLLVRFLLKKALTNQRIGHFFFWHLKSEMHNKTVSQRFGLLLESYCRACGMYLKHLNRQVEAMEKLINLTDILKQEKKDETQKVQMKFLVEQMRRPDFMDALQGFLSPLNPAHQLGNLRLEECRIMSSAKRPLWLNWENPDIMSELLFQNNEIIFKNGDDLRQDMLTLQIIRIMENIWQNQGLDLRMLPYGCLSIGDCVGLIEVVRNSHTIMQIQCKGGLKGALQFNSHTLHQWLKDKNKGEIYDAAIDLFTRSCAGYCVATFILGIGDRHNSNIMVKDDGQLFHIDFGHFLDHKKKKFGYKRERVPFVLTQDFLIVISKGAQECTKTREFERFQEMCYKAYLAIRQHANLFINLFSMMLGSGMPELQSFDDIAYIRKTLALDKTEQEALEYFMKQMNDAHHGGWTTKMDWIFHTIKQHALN
Sequence of PI3K α (P27986 whole entry partner): as the sequence (P27986 whole entry partner) above

SMILES	IC50 (PI3K γ; read-out: PI3K γ IC50) [µM]	IC50 (PI3K α) [µM]	IC50 (mTORC) [µM]	IC50 (PI3K β) [µM]	IC50 (PI3K γ; read-out: PI3K δ IC50) [µM]	IC50 [1] [µM]
CN1CCN(c2cnc3ccc(-c4ccc5oc(N)nc5c4)cc3n2)CC1	< 1	< 0.1	> 10	< 0.1		
N#Cc1cnc2ccc(-c3ccc4oc(N)nc4c3)cc2c1Cl			< 1			
Nc1nc2cc(-c3ccc4ncc(C(=O)N[C@H]5CC[C@H](O)CC5)n4c3)ccc2o1	< 0.1		> 10	< 10		
Nc1nc2cc(-c3ccc4nc(N)sc4c3)ccc2o1		< 1	< 10	< 1	< 1	< 10
Nc1ncc(-c2ccc3oc(N)nc3c2)cn1		> 10	> 10	> 10	< 10	> 10
CC(=O)Nc1cn2cc(-c3ccc4oc(N)nc4c3)ccc2n1		< 0.1	< 1	< 1	< 0.1	< 0.1
CC(=O)Nc1ncc(-c2ccc3oc(N)nc3c2)s1		< 10	< 10	> 10	< 10	< 10
Nc1nc2cc(-c3cccc4[nH]nc(N)c34)ccc2o1		> 10	> 10	> 10	> 10	
CC(C)Oc1nc(-c2ccc3oc(N)nc3c2)cnc1N		< 10	< 1	< 10	< 10	
Nc1nc2cc(-c3ccc4oc(N)nc4c3)ccc2o1		< 1	< 10		< 0.1	< 10
Nc1nc2cc(-c3ccc4nc(N)oc4c3)ccc2o1		< 1	< 10		< 0.1	< 1
Nc1nc2cc(-c3ccc4ncc(N5CC[C@H](O)C5)nc4c3)ccc2o1		< 0.1	< 10	< 1	< 1	> 10
C[C@@H]1CN(C(=O)C2CN(c3cnc4ccc(-c5ccc6oc(N)nc6c5)cc4n3)C2)CCN1		< 0.1	< 10	< 10	< 1	< 1
CC(C)[C@@H](N)C(=O)N1CCN(c2cnc3ccc(-c4ccc5oc(N)nc5c4)cc3n2)CC1		< 0.1	< 10	< 1	< 1	< 1
Nc1nc2cc(-c3ccc4ncc(N5CC(N6CCOCC6)C5)nc4c3)ccc2o1		< 0.1	< 1	> 10	< 10	> 10
CN1CCN(C2CN(c3cnc4ccc(-c5ccc6oc(N)nc6c5)cc4n3)C2)CC1		< 0.1	< 10	< 10	< 10	< 10
Nc1nc2cc(-c3ccc4ncc(N5CC(C(=O)N6CCN(C7CC7)CC6)C5)nc4c3)ccc2o1		< 0.1	< 10	< 10	< 1	< 1
CN1CCN(c2cnc3ccc(-c4ccc5oc(N)nc5c4)cc3n2)CC1=O		< 0.1	< 10	< 1	< 1	< 10
Nc1nc2cc(-c3ccc4ncc(N5CCN(C(=O)[C@@H](N)CO)CC5)nc4c3)ccc2o1		< 0.1	< 10	< 1	< 10	< 10
CN1CCN(C2CN(C(=O)c3cnc4ccc(-c5ccc6oc(N)nc6c5)cn34)C2)CC1		< 0.1	< 10	> 10	> 10	< 10
Nc1nc2cc(-c3ccc4ncc(N5CC(N6CCN(C7CC7)CC6)C5)nc4c3)ccc2o1		< 0.1	< 10	< 10	< 10	< 10
Nc1nc2cc(-c3ccc4ncc(N5CC(N6CC[C@@H](O)C6)C5)nc4c3)ccc2o1		< 0.1	< 1	< 10	< 10	< 10
Nc1nc2cc(-c3ccc4ncc(N5CC(n6cccn6)C5)nc4c3)ccc2o1		< 0.1	< 1	< 10	< 10	> 10
Cc1ccn(C2CN(c3cnc4ccc(-c5ccc6oc(N)nc6c5)cc4n3)C2)n1		< 0.1	> 10	< 10	< 10	< 10
Nc1nc2cc(-c3ccc4ncc(N5CC(N6CC[C@H](O)C6)C5)nc4c3)ccc2o1		< 0.1	> 10	< 1	< 1	< 10

Source: patent US9682141B2, “Combination of kinase inhibitors and uses thereof” (INTELLIKINE LLC, priority 2011, dated 2017)
